Consider 18 compounds from paper PMC10296415, “Methyl-Thiol-Bridged Oxadiazole and Triazole Heterocycles as Inhibitors of NF-κB in Chronic Myelogenous Leukemia Cells” (Biomedicines, 2023).

The test system of one series is MCF-7 cell line. The experiment in a line: MTT cell viability assay, MCF-7. In kind it is cell-based. The protocol:
MCF-7 cells were purchased from Procell Life Science and Technology Co., Ltd., Wuhan, China, and cultured in MEM or Leibovitz’s L-15 medium containing 2% FBS. MCF-7 cells were maintained in a 5% CO2-humidified atmosphere at 37 °C. KCL22, LAMA84, and K562 cells were obtained from the American Type Culture Collection (Manassas, VA, USA). The KBM5 cell line was previously provided by Dr. Bharat Aggarwal (University of Texas M.D. Anderson Cancer Center, Houston, TX, USA). KBM5 cells were cultured in IMDM medium with 10% inactivated FBS and 1% penicillin-streptomycin. KCL22, LAMA84, and K562 cells were cultured in RPMI with 10% FBS and 1% penicillin-streptomycin antibiotics and maintained at 37 °C in a 5% CO2 chamber.
(§1) Cells (1 × 10^4 cells/well) were seeded on a 96-well plate and treated with 4c (0, 5, 10, 15, 30, 50 µM) for 24 h. After 24 h of treatment, 30 µL of MTT solution (2 mg/mL) for 2 h, followed by MTT lysis overnight. Cell viability was analyzed by measuring the absorbance of lysed MTT crystals using VARIOSKAN LUX (Thermo Fisher Scientific Inc., Waltham, MA, USA) at 570 nm.

The test system of another series is MCF-10A cells. Put plainly: Cytotoxicity assay, MCF-10A. The class given is cell-based. Particulars: normal mammary epithelial cells. The protocol:
as §1

Series [1] in a line: DFT frontier molecular orbital calculations. The protocol:
Computational DFT studies for the molecules were performed using Gaussian09 [35]. The molecule was built and visualized by the Gaussview 5 program package. The molecular geometry of the molecules was optimized at the B3LYP level with a 6-311++G (d,p) basis set.
FMO analysis of compound 4c was performed using the B3LYP method with a 6-311 (2d, p) basis set. The HOMO of a molecule represents the site where the electron density is highest and is involved in electron donation, whereas the LUMO represents the site where the electron density is lowest and is involved in electron acceptance. The ELUMO-EHOMO energy gap is directly related to the molecule’s chemical reactivity and kinetic stability. The molecule has a smaller energy gap, which is attributed to less stability and more reactivity. In contrast, the molecule has a large energy gap, attributed to being less chemically reactive and having high chemical stability with greater hardness. […] It is observed that the HOMO-LUMO energy gap of 4l decreased by 1.24 eV and 1.04 eV in alpha and beta orbitals, respectively, when compared with the 4c molecule. […] In contrast, LUMO orbitals were localized on dichlorophenyl, triazole groups, and sulphur atoms of the lead molecule 4c. The chemical potential values for 4c and 4i were estimated to be −4.23 eV and −3.91 eV, respectively, and reflects their significant electron-accepting capacity. […]

Setting [2] is: Homo sapiens, MCF7, viability of MCF-7 cell line.

`COc1ccc(Cc2nnc(SCc3cn(-c4ccc(Cl)cc4)nn3)o2)cc1` [Compound 4a, 2-(((1-(4-Chlorophenyl)-1H-1,2,3-triazol-4-yl)methyl)thio)-5-(4-methoxybenzyl)-1,3,4-oxadiazole] yielded a melting point of 92 to 94 °C. In the series with MCF-7 cell line (setting [2]), half-maximal inhibition (IC50) required 9.58 ± 0.98 µM. For the same compound, the IC50 in the series on MCF-10A cells (Homo sapiens, MCF-10A) was more than 100 µM.
As for `COc1ccc(Cc2nnc(SCc3cn(-c4ccc(Br)cc4)nn3)o2)cc1` [Compound 4b, 2-(((1-(4-Bromophenyl)-1H-1,2,3-triazol-4-yl)methyl)thio)-5-(4-methoxybenzyl)-1,3,4-oxadia-zole], the IC50 in the series on MCF-7 cell line (viability of MCF-7 cell line) was 8.44 ± 0.93 µM; in the series on MCF-10A cells, more than 100 µM.
On to `COc1ccc(Cc2nnc(SCc3cn(-c4ccccc4)nn3)o2)cc1` [Compound 4d, 2-(4-Methoxybenzyl)-5-(((1-phenyl-1H-1,2,3-triazol-4-yl)methyl)thio)-1,3,4-oxadiazole], for which the melting point lay in the range of 60 to 62 °C. The compound also came in with an IC50 in the series on MCF-7 cell line (setting [2]) of 25.8 ± 1.41 µM.
As to `COc1ccc(Cc2nnc(SCc3cn(-c4cccc(Cl)c4)nn3)o2)cc1` [Compound 4e, 2-(((1-(3-Chlorophenyl)-1H-1,2,3-triazol-4-yl)methyl)thio)-5-(4-methoxybenzyl)-1,3,4-oxadiazole], the melting point lay in the range of 94 to 96 °C. In the series with MCF-7 cell line (setting [2]), this compound yielded an IC50 of 9 to 16 µM. The IC50 in the series with MCF-7 cell line (viability of MCF-7 cell line) is 16.9 ± 1.23 µM. In the series with MCF-10A cells (Homo sapiens, MCF-10A), this compound gave an IC50 of more than 100 µM.
With `COc1ccc(Cc2nnc(SCc3cn(-c4ccc(OC)cc4)nn3)o2)cc1` [Compound 4f, 2-(4-Methoxybenzyl)-5-(((1-(4-methoxyphenyl)-1H-1,2,3-triazol-4-yl)methyl)thio)-1,3,4-oxadiazole], the melting point lay in the range of 90 to 92 °C. Moreover, the IC50 in the series with MCF-7 cell line (setting [2]) was found to be 34.5 ± 1.54 µM.
`COc1ccc(Cc2nnc(SCc3cn(-c4ccc(O)cc4)nn3)o2)cc1` [Compound 4g, 4-(4-(((5-(4-Methoxybenzyl)-1,3,4-oxadiazol-2-yl)thio)methyl)-1H-1,2,3-triazol-1-yl)phenol] yielded a melting point of 94 to 96 °C. The IC50 in the series on MCF-7 cell line (setting [2]) came out at 29.7 ± 1.47 µM.
Consider `COc1ccc(Cc2nnc(SCc3cn(-c4ccccc4C)nn3)o2)cc1` [Compound 4h, 2-(4-Methoxybenzyl)-5-(((1-(o-tolyl)-1H-1,2,3-triazol-4-yl)methyl)thio)-1,3,4-oxadiazole], for which it took 26.2 ± 1.42 µM to reach half-maximal inhibition with MCF-7 cell line (setting [2]) (IC50).
In turn, `COc1ccc(Cc2nnc(SCc3cn(-c4ccc(C)cc4)nn3)o2)cc1` [Compound 4i, 2-(4-Methoxybenzyl)-5-(((1-(p-tolyl)-1H-1,2,3-triazol-4-yl)methyl)thio)-1,3,4-oxadiazole] showed a melting point of 104 to 106 °C. In the series with MCF-7 cell line (setting [2]), the IC50 was 45.4 ± 1.66 µM.
In turn, `COc1ccc(Cc2nnc(SCc3cn(-c4ccc(Cl)cc4)nn3)o2)cc1OC` [Compound 4j, 2-(((1-(4-Chlorophenyl)-1H-1,2,3-triazol-4-yl)methyl)thio)-5-(3,4-dimethoxybenzyl)-1,3,4-oxadiazole] came in with a melting point of 72 to 74 °C. In addition, it took 40.5 ± 1.61 µM to reach half-maximal inhibition with MCF-7 cell line (setting [2]) (IC50).
With `COc1ccc(Cc2nnc(SCc3cn(-c4ccc(Br)cc4)nn3)o2)cc1OC` [Compound 4k, 2-(((1-(4-Bromophenyl)-1H-1,2,3-triazol-4-yl)methyl)thio)-5-(3,4-dimethoxybenzyl)-1,3,4-oxadiazole], the melting point was in the range of 98 to 100 °C. Also, the IC50 with MCF-7 cell line (setting [2]) is 31.9 ± 1.5 µM.
The compound `COc1ccc(Cc2nnc(SCc3cn(-c4ccc(Cl)c(Cl)c4)nn3)o2)cc1OC` [Compound 4l, 2-(((1-(3,4-Dichlorophenyl)-1H-1,2,3-triazol-4-yl)methyl)thio)-5-(3,4-dimethoxybenzyl)-1,3,4-oxadiazole] yielded a melting point of 102 to 104 °C. In addition, the IC50 with MCF-7 cell line (setting [2]) was determined as 23.8 ± 1.38 µM. Also, the “decrease of HOMO-LUMO energy gap compared with the 4c molecule” value in series [1] (alpha orbitals) is reported as 1.24 eV. Further, the “decrease of HOMO-LUMO energy gap compared with the 4c molecule” value in series [1] (beta orbitals) was 1.04 eV.
As for `COc1ccc(Cc2nnc(SCc3cn(-c4ccccc4)nn3)o2)cc1OC` [Compound 4m, 2-(3,4-Dimethoxybenzyl)-5-(((1-phenyl-1H-1,2,3-triazol-4-yl)methyl)thio)-1,3,4-oxadiazole], the melting point lay in the range of 46 to 48 °C. In addition, the IC50 with MCF-7 cell line (setting [2]) worked out at 28.3 ± 1.45 µM.
For `COc1ccc(Cc2nnc(SCc3cn(-c4cccc(Cl)c4)nn3)o2)cc1OC` [Compound 4n, 2-(((1-(3-Chlorophenyl)-1H-1,2,3-triazol-4-yl)methyl)thio)-5-(3,4-dimethoxybenzyl)-1,3,4-oxadiazole], the melting point lay within 70 to 72 °C. In the series with MCF-7 cell line (setting [2]), this compound yielded an IC50 of 23.2 ± 1.37 µM.
Compound `COc1ccc(-n2cc(CSc3nnc(Cc4ccc(OC)c(OC)c4)o3)nn2)cc1` [Compound 4o, 2-(3,4-Dimethoxybenzyl)-5-(((1-(4-methoxyphenyl)-1H-1,2,3-triazol-4-yl)methyl)thio)-1,3,4-oxadiazole] came in with a melting point of 76 to 78 °C. In the series with MCF-7 cell line (setting [2]), the midpoint of inhibition, the IC50, lay at 35.8 ± 1.55 µM.
With `COc1ccc(Cc2nnc(SCc3cn(-c4ccccc4O)nn3)o2)cc1OC` [Compound 4p, 2-(4-(((5-(3,4-Dimethoxybenzyl)-1,3,4-oxadiazol-2-yl)thio)methyl)-1H-1,2,3-triazol-1-yl)phenol], the melting point fell in the range of 122 to 124 °C. In the series on MCF-7 cell line (setting [2]), this compound gave an IC50 of 65 ± 1.81 µM.
For the compound `COc1ccc(Cc2nnc(SCc3cn(-c4ccc(C)cc4)nn3)o2)cc1OC` [Compound 4q, 2-(3,4-Dimethoxybenzyl)-5-(((1-(p-tolyl)-1H-1,2,3-triazol-4-yl)methyl)thio)-1,3,4-oxadia-zole], the results for the IC50 with MCF-7 cell line (viability of MCF-7 cell line) and in the series with MCF-10A cells were 19.7 ± 1.3 µM and more than 100 µM, respectively.
In the series on MCF-7 cell line (viability of MCF-7 cell line), `COc1ccc(Cc2nnc(SCc3cn(-c4ccccc4C)nn3)o2)cc1OC` [Compound 4r, 2-(3,4-Dimethoxybenzyl)-5-(((1-(o-tolyl)-1H-1,2,3-triazol-4-yl)methyl)thio)-1,3,4-oxadia-zole] gave an IC50 of 35.7 ± 1.55 µM.
Compound `COc1cccc2c1C(=O)c1c(O)c3c(c(O)c1C2=O)C[C@@](O)(C(=O)CO)C[C@@H]3O[C@H]1C[C@H](N)[C@H](O)[C@H](C)O1` [Doxorubicin, reference compound] yielded an IC50 with MCF-7 cell line (setting [2]) of 0.91 ± 0.04 µM.
